Structures are written as SMILES.

In one assay the test system is HCV replicon cells. Description: Cell-based HCV replicon assay (replicon RNA level by real time PCR, Taqman). To be noted: Hepatitis C virus, 72 h, HCV replicon cells, harvested day 3, replicon RNA by real time PCR; given as number; read-out: EC90 (μM) range. In short, it runs like this: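 HCV replicon cells treated 3 days with 10 serial 2-fold compound dilutions (top 25 μM to 1 μM; 0.5% DMSO, 10% FBS). Replicon RNA quantified by multiplex Taqman RT-PCR (NS5B amplicon, GAPDH control); EC50 and EC90 = concentrations giving ΔCT of 1 and 3.2 over baseline.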
As a reminder, the EC90 is the concentration needed for an effect of 90%. In the case of `CON=C1[C@H](Nc2nc(NCC(F)(F)F)nc(C)c2-c2nc3ccccc3s2)C[C@H](CO)[C@H]1O` [Example 55], the EC90 came to 3.4 µM.

For `CCOc1cc2cc(-c3c(C)nc(NC(C)(C)CC)nc3N[C@@H]3C[C@H](CO)[C@@H](O)[C@H]3O)oc2c(C)n1` [Example 26], the EC90 was found to be 0.5 µM.

Consider `CCOc1cc2cc(-c3c(C)nc(NC(C)C)nc3N[C@@H]3C[C@H](CO)[C@@H](O)[C@H]3O)oc2c(C)n1` [Example 32], for which the concentration for an effect of 90% (EC90) amounted to 0.95 µM.

Consider `COCCNc1nc(C)c(-c2cc3cc(OC(C)C)nc(C)c3o2)c(N[C@@H]2C[C@H](CO)[C@@H](O)[C@H]2O)n1` [Example 37], for which the concentration for an effect of 90% (EC90) stood at 0.3 µM.

`Cc1nc(NCC(C)(C)C)nc(N[C@@H]2C[C@H](CO)[C@@H](O)[C@H]2O)c1-c1cc2cc(OCC3CC3)ncc2o1` [Example 58]: the EC90 turned out to be 1 µM.

The assay is the same for the next values; noted with them: Hepatitis C virus, 72 h, HCV replicon cells, harvested day 3, replicon RNA by real time PCR; reported as range class; read-out: EC90 (μM) range.
`COCCCNc1nc(Cl)c(-c2nc3ccccc3s2)c(N[C@@H]2C[C@H](CO)[C@@H](O)[C@H]2O)n1` [Example 222]: the EC90 was under 0.5 µM.

As to `OC[C@H]1C[C@@H](Nc2nc(NCCF)nc(Cl)c2-c2nc3ccccc3s2)[C@H](O)[C@@H]1O` [Example 213], the EC90 is under 0.5 µM.

For `CC(=O)OCCNc1nc(C)c(-c2nc3ccccc3s2)c(N[C@@H]2C[C@H](CO)[C@@H](O)[C@H]2O)n1` [Example 211], the EC90 was under 0.5 µM.

Regarding `CCOc1ccc2nc(-c3c(Cl)nc(N)nc3N[C@@H]3C[C@H](CO)[C@@H](O)[C@H]3O)sc2c1` [Example 182], the 90% effect concentration (EC90) is under 0.5 µM.

Turning to `Nc1nc(Cl)c(-c2cc3ccncc3o2)c(N[C@@H]2C[C@H](CO)[C@@H](O)[C@H]2O)n1` [Example 9], the 90% effect concentration (EC90) was under 0.5 µM.

Regarding `Nc1nc(Cl)c(-c2nc3ccc(F)cc3s2)c(N[C@@H]2C[C@H](CO)[C@@H](O)[C@H]2O)n1` [Example 110], the concentration for an effect of 90% (EC90) lay in the range of 0.5 to 5 µM.

Take `COC[C@H]1C[C@@H](Nc2nc(N(C)C)nc(Cl)c2-c2nc3ccccc3s2)[C@H](O)[C@@H]1O` [Example 121]: the EC90 was under 0.5 µM.

Consider `CNC(=O)c1ccc2cc(-c3c(Cl)nc(N)nc3N[C@@H]3C[C@H](CO)[C@@H](O)[C@H]3O)oc2c1` [Example 177], for which the EC90 was over 5 µM.

As for `CN(C)C(=O)c1ccc2cc(-c3c(Cl)nc(N)nc3N[C@@H]3C[C@H](CO)[C@@H](O)[C@H]3O)oc2c1` [Example 176], the concentration for an effect of 90% (EC90) was over 5 µM.

On to `CNc1ccc2nc(-c3c(Cl)nc(N)nc3N[C@@H]3C[C@H](CO)[C@@H](O)[C@H]3O)sc2c1` [Example 196], for which the concentration for an effect of 90% (EC90) is under 0.5 µM.

On to `CNc1nc(C)c(-c2cc3cc(OC)nc(C)c3o2)c(N[C@@H]2C[C@H](CO)[C@@H](O)[C@H]2O)n1` [Example 17], for which the concentration for an effect of 90% (EC90) was under 0.5 µM.

`N#Cc1ccc2oc(-c3c(Cl)nc(N)nc3N[C@@H]3C[C@H](CO)[C@@H](O)[C@H]3O)cc2c1` [Example 171]: the EC90 was over 5 µM.

Take `Nc1nc(N[C@@H]2C[C@H](CO)[C@@H](O)[C@H]2O)c(-c2ncccn2)c(-c2ncccn2)n1` [Example 160]: the EC90 is over 5 µM.

The assay is the same for the next values; noted with them: Hepatitis C virus, 72 h, HCV replicon cells, harvested on day 3, replicon RNA by real time PCR; calculated EC90 reported as range class; read-out: EC90 (μM) range.
With `CCOCCNc1nc(C)c(-c2nc(C)c(C)s2)c(N[C@@H]2C[C@H](CO)[C@H]3OC(C)(C)O[C@H]32)n1` [Example 133], the EC90 is over 5 µM.

Turning to `Cc1ccc(CNc2nc(C)c(-c3nc4ccccc4s3)c(N[C@@H]3C[C@H](CO)[C@@H](O)[C@H]3O)n2)s1` [Example 497], the EC90 was under 0.5 µM.

In the case of `Cc1cc(C)cc(CNc2nc(C)c(-c3nc4ccccc4s3)c(N[C@@H]3C[C@H](CO)[C@@H](O)[C@H]3O)n2)c1` [Example 713], the EC90 is under 0.5 µM.

As to `CCCCCNc1nc(Cl)c(-c2cc3cc(C)ncc3o2)c(N[C@@H]2C[C@H](CO)[C@@H](O)[C@H]2O)n1` [Example 451], the EC90 is under 0.5 µM.

Turning to `COC[C@H](C)Nc1nc(C)c(-c2nc3ccccc3s2)c(N[C@@H]2C[C@H](CO)[C@@H](O)[C@H]2O)n1` [Example 439], the EC90 was under 0.5 µM.

On to `CCOC(=O)NCCNc1nc(C)c(-c2nc3ccccc3s2)c(N[C@@H]2C[C@H](CO)[C@H]3OC(C)(C)O[C@H]32)n1` [Example 255], for which the 90% effect concentration (EC90) is under 0.5 µM.

Consider `CCCCNc1nc(C)c(-c2nc3ccccc3s2)c(N[C@@H]2C[C@H](CO)[C@@H](O)[C@H]2O)n1` [Example 434], for which the 90% effect concentration (EC90) is under 0.5 µM.

As to `Cc1cc2cc(-c3c(Cl)nc(N(C)C)nc3N[C@@H]3C[C@H](CO)[C@@H](O)[C@H]3O)oc2c(C)n1` [Example 420], the concentration for an effect of 90% (EC90) was over 5 µM.

As to `Cc1nc(NCCNC(=O)NC(C)(C)C)nc(N[C@@H]2C[C@H](CO)[C@H]3OC(C)(C)O[C@H]32)c1-c1nc2ccccc2s1` [Example 249], the concentration for an effect of 90% (EC90) is over 5 µM.

Take `OC[C@H]1C[C@@H](Nc2nc(NCC(F)(F)F)nc(C3CC3)c2-c2nc3ccccc3s2)[C@H](O)[C@@H]1O` [Example 128]: the EC90 was over 5 µM.

On to `CCOCCNc1nc(C)c(-c2nc3cc(NC)ccc3s2)c(N[C@@H]2C[C@H](CO)[C@@H](O)[C@H]2O)n1` [Example 259], for which the EC90 was under 0.5 µM.

`CCOCCNc1nc(Cl)c(-c2cc3cc(CC)ncc3o2)c(N[C@@H]2C[C@H](CO)[C@@H](O)[C@H]2O)n1` [Example 512]: the EC90 is under 0.5 µM.

With `CCc1cc2cc(-c3c(Cl)nc(NCCC(F)(F)F)nc3N[C@@H]3C[C@H](CO)[C@@H](O)[C@H]3O)oc2cn1` [Example 520], the EC90 is under 0.5 µM.

Consider `Cc1nc(NCc2cccc(F)c2)nc(N[C@@H]2C[C@H](CO)[C@@H](O)[C@H]2O)c1-c1nc2ccccc2s1` [Example 244], for which the concentration for an effect of 90% (EC90) was under 0.5 µM.

Still in this assay, the particulars now being: Hepatitis C virus, 72 h, HCV replicon cells, replicon RNA level by real time PCR (Taqman), harvested on day 3; calculated EC90 reported as range class; read-out: EC90 (μM) range.
Turning to `COCCCCNc1nc(C)c(-c2nc3cnccc3s2)c(N[C@@H]2C[C@H](CO)[C@@H](O)[C@H]2O)n1` [Example 1050], the 90% effect concentration (EC90) is under 0.5 µM.

Turning to `COCCCCNc1nc(C)c(-c2nc3ccccc3s2)c(N[C@@H]2C[C@H](CO)[C@@H](O)[C@H]2O)n1` [Example 1048], the EC90 was under 0.5 µM.

As to `Cc1nc(N[C@@H](C)C(C)(C)C)nc(N[C@@H]2C[C@H](CO)[C@@H](O)[C@H]2O)c1-c1nc2cnccc2s1` [Example 1310], the 90% effect concentration (EC90) is 0.5 to 5 µM.

Turning to `COc1cc2cc(-c3c(C)nc(NCC4CC4)nc3N[C@@H]3C[C@H](CO)[C@H]4OC(C)(C)O[C@H]43)oc2c(OC)n1` [Example 1126], the EC90 was 0.5 to 5 µM.

For `Cc1nc(NCc2ccccc2O)nc(N[C@@H]2C[C@H](CO)[C@@H](O)[C@H]2O)c1-c1nc2ccccc2s1` [Example 1220], the concentration for an effect of 90% (EC90) was under 0.5 µM.

Regarding `Cc1nc(N)nc(N[C@@H]2C[C@H](CO)[C@@H](O)[C@H]2O)c1-c1nc2cnccc2s1` [Example 1325], the concentration for an effect of 90% (EC90) was 0.5 to 5 µM.

For `Cc1nc(NCC(C)(C)C)nc(N[C@@H]2C[C@H](CO)[C@@H](O)[C@H]2O)c1-c1cc2cc(C(C)(C)C)ncc2o1` [Example 1104], the EC90 is over 5 µM.

In the case of `Cc1ccc2nc(-c3c(C)nc(NCC(F)(F)F)nc3N[C@@H]3C[C@H](CO)[C@@H](O)[C@H]3O)sc2c1` [Example 1063], the 90% effect concentration (EC90) was 0.5 to 5 µM.

Still in this assay, the particulars now being: Hepatitis C virus, 72 h, HCV replicon cells, replicon RNA level by real time PCR, harvested day 3; read-out: EC90 (μM) range.
For `Cc1nc(N[C@H](C)C2CC2)nc(N[C@@H]2C[C@H](CO)[C@@H](O)[C@H]2O)c1-c1nc2c(CC(C)C)nccc2s1` [Example 1373], the 90% effect concentration (EC90) was under 0.5 µM.

Regarding `Cc1nc(NCCc2cccs2)nc(N[C@@H]2C[C@H](CO)[C@@H](O)[C@H]2O)c1-c1nc2cnccc2s1` [Example 1806], the concentration for an effect of 90% (EC90) is over 5 µM.

For the compound `Cc1nc(NCc2cccs2)nc(N[C@@H]2C[C@H](CO)[C@@H](O)[C@H]2O)c1-c1cc2ccccc2s1` [Example 1602], the EC90 is over 5 µM.

As to `Cc1nc(Nc2cccc3cccnc23)nc(N[C@@H]2C[C@H](CO)[C@@H](O)[C@H]2O)c1-c1nc2ccccc2s1` [Example 1620], the 90% effect concentration (EC90) was over 5 µM.

Consider `Cc1nc(NCc2cc3cn[nH]c3cc2F)nc(N[C@@H]2C[C@H](CO)[C@@H](O)[C@H]2O)c1-c1nc2ccccc2s1` [Example 1909], for which the EC90 was under 0.5 µM.

With `CCNC(=O)OC[C@H]1C[C@@H](Nc2nc(NCC3CC3)nc(C)c2-c2nc3ccccc3s2)[C@H](O)[C@@H]1O` [Example 1629], the 90% effect concentration (EC90) was 0.5 to 5 µM.

Take `CCCc1nccc2sc(-c3c(C)nc(NC4CC4)nc3N[C@@H]3C[C@H](CO)[C@@H](O)[C@H]3O)nc12` [Example 1535]: the 90% effect concentration (EC90) was under 0.5 µM.

Regarding `Cc1nc(NCC(F)(F)F)nc(N[C@H]2CN[C@@H](CO)C2)c1-c1nc2ccccc2s1` [Example 1349], the EC90 was over 5 µM.

For `Cc1nc(NC2CC2)nc(N[C@@H]2CC[C@@H](O)[C@@]2(C)O)c1-c1nc2cnccc2s1` [Example 1820], the EC90 lay within 0.5 to 5 µM.

`CCN(C[C@H]1C[C@@H](Nc2nc(NCC(F)(F)F)nc(C)c2-c2nc3ccccc3s2)[C@H](O)[C@@H]1O)S(C)(=O)=O` [Example 1392]: the concentration for an effect of 90% (EC90) was under 0.5 µM.

For `Cc1ccccc1[C@H](Nc1nc(C)c(-c2nc3c(C)nccc3s2)c(N[C@@H]2C[C@H](CO)[C@@H](O)[C@H]2O)n1)C(F)(F)F` [Example 1539], the 90% effect concentration (EC90) was under 0.5 µM.

In the case of `CCNC(=O)NC[C@H]1C[C@@H](Nc2nc(NCC(F)(F)F)nc(C)c2-c2nc3ccccc3s2)[C@H](O)[C@@H]1O` [Example 1377], the concentration for an effect of 90% (EC90) lay within 0.5 to 5 µM.

Regarding `Cc1nc(NCc2c(F)cccc2F)nc(N[C@@H]2C[C@H](CO)[C@@H](O)[C@H]2O)c1-c1nc2ccccc2s1` [Example 1910], the 90% effect concentration (EC90) was under 0.5 µM.

For the compound `Cc1nc(NCc2cc3cnn(C(=O)OC(C)(C)C)c3cc2F)nc(N[C@@H]2C[C@H](CO)[C@H]3OC(C)(C)O[C@H]32)c1-c1nc2ccccc2s1` [Example 1908], the EC90 was in the range of 0.5 to 5 µM.

With `Cc1nc(NCC(F)(F)F)nc(N[C@@H]2C[C@H](CC#N)[C@@H](O)[C@H]2O)c1-c1nc2ccccc2s1` [Example 1635], the EC90 is under 0.5 µM.
